# From patent US20130072430A1, “METHODS FOR TREATMENT OR PROPHYLAXIS OF KIDNEY OR LIVER DYSFUNCTION” (NPS PHARMACEUTICALS, INC., priority 2010, published 2013)
# Test system: Human patients with short bowel syndrome
# Test: Example 1: liver diagnostic biomarkers (total bilirubin, ALT, AST, ALP) in short bowel syndrome patients, every four weeks for 24 weeks
# Assay type: in vivo
# Protocol: Human patients with short bowel syndrome were divided into three groups: a control group (16 total individuals) to receive placebo, an experimental group (35 total individuals) to receive teduglutide at 0.05 mg/kg/day throughout the study, and an experimental group (32 total individuals) to receive teduglutide at 0.1 mg/kg/day throughout the study. Patients were treated by subcutaneous injection of placebo or the appropriate dose of teduglutide. As individuals with short bowel syndrome are likely to experience associated liver and kidney disease, known biomarkers of liver and kidney function were monitored every four weeks, for 24 weeks. The liver biomarkers tested included total bilirubin, ALT and AST and ALP. The kidney biomarkers tested included urea nitrogen, creatinine and GFR. Before administration of placebo or teduglutide, diagnostic biomarker levels were tested to establish a baseline for each individual.
# To visualize the effect of GLP-2 on the levels of the diagnostic biomarkers, the average change from baseline was calculated for the placebo and teduglutide treated groups for each visit after a baseline was established. The average change from baseline of each group is depicted in FIGS. […]. The numerical figures for each diaanostic biomarker at each time point are depicted in Table 1.
# The efficacy of teduglutide in treating liver dysfunction was further tested by sorting the data into two groups: individuals with abnormal baseline values of liver diagnostic biomarkers; and individuals with normal baseline values of liver diagnostic biomarkers. The mean diagnostic biomarker change from baseline for these two groups is shown for ALT (FIGS. 5 and 6) and AST (FIGS. 7 and 8). […] These changes were significant when compared to baseline levels for the group, and when compared to placebo (see FIGS. 5 and 7).
# The raw data for this sorting is reproduced in Table 2 below.
# [1] = Week 12, range −5%<= and <=5%, teduglutide 0.05 mg/kg/day
# [2] = Week 12, range −5%<= and <=5%, teduglutide 0.1 mg/kg/day
# [3] = Week 16, range <−5%, teduglutide 0.05 mg/kg/day
# [4] = Week 16, range <−5%, teduglutide 0.1 mg/kg/day
# [5] = Week 16, range >5%, teduglutide 0.05 mg/kg/day
# [6] = Week 16, range >5%, teduglutide 0.1 mg/kg/day
# [7] = Week 16, range −5%<= and <=5%, teduglutide 0.05 mg/kg/day
# [8] = Week 16, range −5%<= and <=5%, teduglutide 0.1 mg/kg/day
# [9] = Week 20, range <−5%, teduglutide 0.05 mg/kg/day
# [10] = Week 20, range <−5%, teduglutide 0.1 mg/kg/day
# [11] = Week 20, range >5%, teduglutide 0.05 mg/kg/day
# [12] = Week 20, range >5%, teduglutide 0.1 mg/kg/day
# [13] = Week 20, range −5%<= and <=5%, teduglutide 0.05 mg/kg/day
# [14] = Week 20, range −5%<= and <=5%, teduglutide 0.1 mg/kg/day
# [15] = Week 24, range <−5%, teduglutide 0.05 mg/kg/day
# [16] = Week 24, range <−5%, teduglutide 0.1 mg/kg/day
# [17] = Week 24, range >5%, teduglutide 0.05 mg/kg/day
# [18] = Week 24, range >5%, teduglutide 0.1 mg/kg/day
# [19] = Week 24, range −5%<= and <=5%, teduglutide 0.05 mg/kg/day
# [20] = Week 24, range −5%<= and <=5%, teduglutide 0.1 mg/kg/day
# [21] = compared to baseline and to placebo
compound,measurement,setting,value
CC[C@H](C)[C@H](NC(=O)[C@H](Cc1ccccc1)NC(=O)[C@H](CC(=O)O)NC(=O)[C@H](CCCNC(=N)N)NC(=O)[C@H](C)NC(=O)[C@H](C)NC(=O)[C@H](CC(C)C)NC(=O)[C@H](CC(N)=O)NC(=O)[C@H](CC(=O)O)NC(=O)[C@H](CC(C)C)NC(=O)[C@@H](NC(=O)[C@@H](NC(=O)[C@H](CC(N)=O)NC(=O)[C@H](CCSC)NC(=O)[C@H](CCC(=O)O)NC(=O)[C@H](CC(=O)O)NC(=O)[C@H](CO)NC(=O)[C@H](Cc1ccccc1)NC(=O)[C@H](CO)NC(=O)CNC(=O)[C@H](CC(=O)O)NC(=O)CNC(=O)[C@@H](N)Cc1c[nH]cn1)[C@@H](C)O)[C@@H](C)CC)C(=O)N[C@@H](CC(N)=O)C(=O)N[C@@H](Cc1c[nH]c2ccccc12)C(=O)N[C@@H](CC(C)C)C(=O)N[C@H](C(=O)N[C@@H](CCC(N)=O)C(=O)N[C@H](C(=O)N[C@@H](CCCCN)C(=O)N[C@H](C(=O)N[C@H](C(=O)N[C@@H](CC(=O)O)C(=O)O)[C@@H](C)O)[C@@H](C)CC)[C@@H](C)O)[C@@H](C)CC [teduglutide],"ALT (SGPT) change from baseline: patients in range, n(%)",[1],4(11.4%)
same,"AST (SGOT) change from baseline: patients in range, n(%)",[1],3(8.6%)
same,"TOTAL BILIRUBIN change from baseline: patients in range, n(%)",[1],4(11.4%)
same,"ALKALINE PHOSPHATASE change from baseline: patients in range, n(%)",[2],1(3.1%)
same,"ALT (SGPT) change from baseline: patients in range, n(%)",[2],2(6.3%)
same,"AST (SGOT) change from baseline: patients in range, n(%)",[2],3(9.4%)
same,"TOTAL BILIRUBIN change from baseline: patients in range, n(%)",[2],6(18.8%)
same,"ALKALINE PHOSPHATASE change from baseline: patients in range, n(%)",[3],20(57.1%)
same,"AST (SGOT) change from baseline: patients in range, n(%)",[3],14(40.0%)
same,"TOTAL BILIRUBIN change from baseline: patients in range, n(%)",[3],14(40.0%)
same,"ALKALINE PHOSPHATASE change from baseline: patients in range, n(%)",[4],21(65.6%)
same,"AST (SGOT) change from baseline: patients in range, n(%)",[4],18(56.3%)
same,"TOTAL BILIRUBIN change from baseline: patients in range, n(%)",[4],14(43.8%)
same,"ALKALINE PHOSPHATASE change from baseline: patients in range, n(%)",[5],6(17.1%)
same,"ALT (SGPT) change from baseline: patients in range, n(%)",[5],12(34.3%)
same,"AST (SGOT) change from baseline: patients in range, n(%)",[5],8(22.9%)
same,"TOTAL BILIRUBIN change from baseline: patients in range, n(%)",[5],9(25.7%)
same,"ALKALINE PHOSPHATASE change from baseline: patients in range, n(%)",[6],7(21.9%)
same,"ALT (SGPT) change from baseline: patients in range, n(%)",[6],9(28.1%)
same,"AST (SGOT) change from baseline: patients in range, n(%)",[6],8(25.0%)
same,"TOTAL BILIRUBIN change from baseline: patients in range, n(%)",[6],6(18.8%)
same,"ALT (SGPT) change from baseline: patients in range, n(%)","Week 16, range >−5%, teduglutide 0.05 mg/kg/day",16(45.7%)
same,"ALT (SGPT) change from baseline: patients in range, n(%)","Week 16, range >−5%, teduglutide 0.1 mg/kg/day",19(59.4%)
same,"ALKALINE PHOSPHATASE change from baseline: patients in range, n(%)",[7],2(5.7%)
same,"ALT (SGPT) change from baseline: patients in range, n(%)",[7],0(0.0%)
same,"AST (SGOT) change from baseline: patients in range, n(%)",[7],6(17.1%)
same,"TOTAL BILIRUBIN change from baseline: patients in range, n(%)",[7],3(8.6%)
same,"ALKALINE PHOSPHATASE change from baseline: patients in range, n(%)",[8],2(6.3%)
same,"ALT (SGPT) change from baseline: patients in range, n(%)",[8],2(6.3%)
same,"AST (SGOT) change from baseline: patients in range, n(%)",[8],3(9.4%)
same,"TOTAL BILIRUBIN change from baseline: patients in range, n(%)",[8],8(25.0%)
same,"ALKALINE PHOSPHATASE change from baseline: patients in range, n(%)",[9],22(62.9%)
same,"ALT (SGPT) change from baseline: patients in range, n(%)",[9],17(48.6%)
same,"AST (SGOT) change from baseline: patients in range, n(%)",[9],17(48.6%)
same,"TOTAL BILIRUBIN change from baseline: patients in range, n(%)",[9],12(34.3%)
same,"ALKALINE PHOSPHATASE change from baseline: patients in range, n(%)",[10],19(59.4%)
same,"ALT (SGPT) change from baseline: patients in range, n(%)",[10],19(59.4%)
same,"AST (SGOT) change from baseline: patients in range, n(%)",[10],16(50.0%)
same,"TOTAL BILIRUBIN change from baseline: patients in range, n(%)",[10],14(43.8%)
same,"ALKALINE PHOSPHATASE change from baseline: patients in range, n(%)",[11],4(11.4%)
same,"ALT (SGPT) change from baseline: patients in range, n(%)",[11],9(25.7%)
same,"AST (SGOT) change from baseline: patients in range, n(%)",[11],6(17.1%)
same,"TOTAL BILIRUBIN change from baseline: patients in range, n(%)",[11],7(20.0%)
same,"ALKALINE PHOSPHATASE change from baseline: patients in range, n(%)",[12],9(28.1%)
same,"ALT (SGPT) change from baseline: patients in range, n(%)",[12],8(25.0%)
same,"AST (SGOT) change from baseline: patients in range, n(%)",[12],9(28.1%)
same,"TOTAL BILIRUBIN change from baseline: patients in range, n(%)",[12],9(28.1%)
same,"ALKALINE PHOSPHATASE change from baseline: patients in range, n(%)",[13],1(2.9%)
same,"ALT (SGPT) change from baseline: patients in range, n(%)",[13],1(2.9%)
same,"AST (SGOT) change from baseline: patients in range, n(%)",[13],4(11.4%)
same,"TOTAL BILIRUBIN change from baseline: patients in range, n(%)",[13],6(17.1%)
same,"ALKALINE PHOSPHATASE change from baseline: patients in range, n(%)",[14],1(3.1%)
same,"ALT (SGPT) change from baseline: patients in range, n(%)",[14],2(6.3%)
same,"AST (SGOT) change from baseline: patients in range, n(%)",[14],3(9.4%)
same,"TOTAL BILIRUBIN change from baseline: patients in range, n(%)",[14],6(18.8%)
same,"ALKALINE PHOSPHATASE change from baseline: patients in range, n(%)",[15],21(60.0%)
same,"ALT (SGPT) change from baseline: patients in range, n(%)",[15],18(51.4%)
same,"AST (SGOT) change from baseline: patients in range, n(%)",[15],17(48.6%)
same,"TOTAL BILIRUBIN change from baseline: patients in range, n(%)",[15],8(22.9%)
same,"ALKALINE PHOSPHATASE change from baseline: patients in range, n(%)",[16],20(62.5%)
same,"ALT (SGPT) change from baseline: patients in range, n(%)",[16],18(56.3%)
same,"AST (SGOT) change from baseline: patients in range, n(%)",[16],15(46.9%)
same,"TOTAL BILIRUBIN change from baseline: patients in range, n(%)",[16],11(34.4%)
same,"ALKALINE PHOSPHATASE change from baseline: patients in range, n(%)",[17],4(11.4%)
same,"ALT (SGPT) change from baseline: patients in range, n(%)",[17],4(11.4%)
same,"AST (SGOT) change from baseline: patients in range, n(%)",[17],6(17.1%)
same,"TOTAL BILIRUBIN change from baseline: patients in range, n(%)",[17],10(28.6%)
same,"ALKALINE PHOSPHATASE change from baseline: patients in range, n(%)",[18],5(15.6%)
same,"ALT (SGPT) change from baseline: patients in range, n(%)",[18],11(34.4%)
same,"AST (SGOT) change from baseline: patients in range, n(%)",[18],11(34.4%)
same,"TOTAL BILIRUBIN change from baseline: patients in range, n(%)",[18],10(31.3%)
same,"ALKALINE PHOSPHATASE change from baseline: patients in range, n(%)",[19],0(0.0%)
same,"ALT (SGPT) change from baseline: patients in range, n(%)",[19],4(11.4%)
same,"AST (SGOT) change from baseline: patients in range, n(%)",[19],3(8.6%)
same,"TOTAL BILIRUBIN change from baseline: patients in range, n(%)",[19],4(11.4%)
same,"ALKALINE PHOSPHATASE change from baseline: patients in range, n(%)",[20],4(12.5%)
same,"ALT (SGPT) change from baseline: patients in range, n(%)",[20],0(0.0%)
same,"AST (SGOT) change from baseline: patients in range, n(%)",[20],3(9.4%)
same,"TOTAL BILIRUBIN change from baseline: patients in range, n(%)",[20],6(18.8%)
same,fraction of individuals experiencing a decrease of more than 5% in ALT versus placebo,beginning at 4 weeks after commencement of treatment,greater fraction of individuals experiencing a decrease of more than 5%
same,ALT change from baseline in patients with abnormal baseline values (FIG. 5),[21],statistically significant improvements
same,AST change from baseline in patients with abnormal baseline values (FIG. 7),[21],statistically significant improvements
same,average level of ALP relative to baseline (FIG. 4),groups receiving teduglutide,decreased relative to baseline for the entire period of the study
same,percent of individuals experiencing an increase of greater than 5% in ALP or ALT versus placebo,groups receiving teduglutide,effective prophylactic against increases in biomarkers associated with liver dysfunction
same,average decrease of the level of ALT from baseline (FIG. 1),"groups receiving teduglutide, maintained for the entire duration of the study",about 10 U/L
same,individuals experiencing a decrease in ALP greater than 5% from baseline,"within 4 weeks of the beginning of treatment, groups receiving teduglutide",roughly 60%
